Test system: human cancer cells (KB, MX-1, WiDr, HMV-2, LX-1) implanted in nude mice
Assay: Growth inhibition of human cancer cells implanted in nude mice (Test Examples 5 to 9)
Format: in vivo, human cancer cells in BALB/c nude mice
Settings: 50 mg/kg, FIGS. 1-9 (cell line not stated)
Procedure: In the following Test examples 5 to 9, human cancer cells were implanted in nude mice, to which test compounds dissolved in an aqueous solution containing NaOH were administered, and, thus, the degree of growth inhibition of cancer cells was observed.
FIGS. 1-9 show the variation with the lapse of days of IR.
FIGS. 10-14 show the relation between tumor weight and the lapse of days in the case where Compound 1--1 was used in Test examples 5-9. Vertical axis corresponds to tumor weight, and horizontal axis corresponds to the days which passed after the start of administration. Tumor weight was estimated from tumor diameter. The term Control in FIGS. 10-14 means tumor weight variation with days in nude mice to which, although cancer cells had been implanted, no test compounds had been administered.
In the following, there is explained schedule of administration of test compounds in nude mice. After days of × in number have passed from implantation of human cancer cells in nude mice, test compounds are intraperitoneally (ip) administered for y days, followed by wash-out periods of days of z in number. Thereafter, test compounds are administered again for y days. In this case, the cycle of administration (y days) and discontinuation (z days) is called "course". Such a schedule is denoted by marks as follows:
[(x) (y) (z) (course) (ip)]
These marks are explained below with an example. […]

SMILES: CN[C@@H]1CN(c2ccc3c(=O)c(C(=O)O)cn(-c4nccs4)c3n2)C[C@H]1OC.Cl (relative stereo) [Compound 1-1, 1,4-dihydro-7-(trans-3-methoxy-4-methylamino-1-pyrrolidinyl)-4-oxo-1-(2-thiazolyl)-1,8-naphthyridine-3-carboxylic acid hydrochloride]
- Tumor Growth Inhibition Rate IR % on the last day of observation: 91%

Source: patent US5817669A, “Compounds, processes for the preparation thereof and anti-tumor agents” (Dainippon Pharmaceutical Co., Ltd., priority 1994, dated 1998)
